BindingDB's records for patent US11472769 (Eccogene (Shanghai) Co., Ltd., 2022)

Molecular target: T1, Amine oxidase [copper-containing] 3 (Homo sapiens, UniProt Q16853)
T1 construct: gene AOC3
Test: SSAO Activity Assay
Procedure: Amine oxidase activity of recombinant hSSAO, hMAO-A, and hMAO-B isoforms are measured using the MAO-Glo assay kit (Promega, V1402). Ten nL test compounds (with DMSO as vehicle, 0.1% v/v for hSSAO, hMAO-A and hMAO-B) were added into assay plates by Echo, and pre-incubated with 5 μL of enzyme for 30 mins at room temperature before the addition of 5 μL of luminogenic substrate. The substrate concentration is 40 μM for human recombinant SSAO, 40 μM for human recombinant MAO-A, and 4 μM for human recombinant MAO-B. The hSSAO and hMAO-A assays were conducted in the MAO-A reaction buffer in the kit, and the MAO-B assay was conducted in the MAO-B reaction buffer. Oxidation of the substrate was conducted for 1 hr, before the addition of detecting reagent according the manufacture's protocol. The IC50 value of the tested compounds was calculated by fitting the dose response curve using a 4-parameter non-linear regression routine.

T1 sequence (Q16853 whole entry, looked up): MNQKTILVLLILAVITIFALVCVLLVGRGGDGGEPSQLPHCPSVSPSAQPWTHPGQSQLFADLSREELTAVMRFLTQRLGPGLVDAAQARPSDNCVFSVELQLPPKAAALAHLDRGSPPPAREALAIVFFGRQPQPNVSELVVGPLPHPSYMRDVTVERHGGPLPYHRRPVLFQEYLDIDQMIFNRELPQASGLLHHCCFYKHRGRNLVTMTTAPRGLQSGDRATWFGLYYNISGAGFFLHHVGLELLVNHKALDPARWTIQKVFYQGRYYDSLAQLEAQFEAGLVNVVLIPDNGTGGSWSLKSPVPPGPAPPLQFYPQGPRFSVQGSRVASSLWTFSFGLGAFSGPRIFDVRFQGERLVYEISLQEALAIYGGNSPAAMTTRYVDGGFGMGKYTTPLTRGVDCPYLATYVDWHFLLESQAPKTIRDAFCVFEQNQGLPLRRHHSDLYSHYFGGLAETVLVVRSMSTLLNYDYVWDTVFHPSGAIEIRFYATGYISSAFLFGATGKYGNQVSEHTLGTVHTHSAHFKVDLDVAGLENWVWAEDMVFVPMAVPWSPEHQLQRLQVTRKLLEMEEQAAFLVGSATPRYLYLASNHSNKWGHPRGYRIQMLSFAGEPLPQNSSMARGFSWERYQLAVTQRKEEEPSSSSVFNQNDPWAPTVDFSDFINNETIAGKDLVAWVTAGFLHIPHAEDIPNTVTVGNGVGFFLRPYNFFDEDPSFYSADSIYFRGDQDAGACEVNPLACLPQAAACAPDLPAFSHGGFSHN

SMILES	IC50
NC/C(=C\F)COc1ccc(S(=O)(=O)Cc2ccc(C(=O)N3CCCC3)cc2)cc1 [US11472769, Compound 46]	in the range around 60 nM
CC1CCN(C23CCC(CS(=O)(=O)c4ccc(OC/C(=C/F)CN)cc4)(CC2)CC3)C1=O (configuration not stated) [US11472769, Compound 83]	< 20 nM
NC/C(=C\F)COc1ccc(S(=O)(=O)C[C@@H]2CCOC2)cc1 [US11472769, Compound 21]	in the range around 60 nM
NC/C(=C\F)COc1ccc(S(=O)(=O)COCC2CCOCC2)cc1 [US11472769, Compound 30]	< 20 nM
CC(C)n1nc(CS(=O)(=O)c2ccc(OC/C(=C/F)CN)cc2)ccc1=O [US11472769, Compound 102]	< 20 nM
NC/C(=C\F)COc1ccc(S(=O)(=O)CC23CCC(C4(O)CC4)(CC2)CC3)cc1 [US11472769, Compound 18]	< 20 nM
NC/C(=C\F)COc1ccc(S(=O)(=O)C[C@H]2CC[C@H](NC(=O)C3CC3)CC2)cc1 [US11472769, Compound 88]	< 20 nM
NC/C(=C\F)COc1ccc(S(=O)(=O)C[C@H]2CC[C@H](O)CC2)cc1 [US11472769, Compound 14]	in the range around 60 nM
NC/C(=C\F)COc1ccc(S(=O)(=O)CC23CCC(NC(=O)CC(F)(F)F)(CC2)CC3)cc1 [US11472769, Compound 79]	< 20 nM
NC/C(=C\F)COc1ccc(S(=O)(=O)CC23CCC(NC(=O)C4CC4)(CC2)CC3)cc1 [US11472769, Compound 76]	< 20 nM
C[C@@H](CN1CCCCC1=O)CS(=O)(=O)c1ccc(OC/C(=C/F)CN)cc1 [US11472769, Compound 105]	in the range around 60 nM
NC/C(=C\F)COc1ccc(S(=O)(=O)CC23CCC(C(=O)NC4CCC4)(CC2)CC3)cc1 [US11472769, Compound 64]	< 20 nM
NC/C(=C\F)COc1ccc(S(=O)(=O)C[C@@H]2CCCO2)cc1 [US11472769, Compound 23]	in the range around 60 nM
C[C@@H](CN1CCCC1=O)CS(=O)(=O)c1ccc(OC/C(=C/F)CN)cc1 [US11472769, Compound 94]	in the range around 60 nM
NC/C(=C\F)COc1ccc(S(=O)(=O)C[C@H]2CC[C@@H](O)CC2)cc1 [US11472769, Compound 15]	< 20 nM
C[C@H](CN1CCCC1=O)CS(=O)(=O)c1ccc(OC/C(=C/F)CN)cc1 [US11472769, Compound 93]	> 500 nM
N#CC12CCC(CS(=O)(=O)c3ccc(OC/C(=C/F)CN)cc3)(CC1)CC2 [US11472769, Compound 87]	< 20 nM
NC/C(=C\F)COc1ccc(S(=O)(=O)C[C@H]2CCCO2)cc1 [US11472769, Compound 24]	< 20 nM
CO[C@H]1CC[C@H](CS(=O)(=O)c2ccc(OC/C(=C/F)CN)cc2)CC1 [US11472769, Compound 19]	< 20 nM

SMILES	IC50
NC/C(=C/F)COc1ccc(S(=O)(=O)CC23CCC(NC(=O)C4CC4)(CC2)CC3)cc1 [US11472769, Compound 139]	< 20 nM
NC/C(=C\F)COc1ccc(S(=O)(=O)C[C@H]2CCOC2)cc1 [US11472769, Compound 22]	in the range around 60 nM
COCS(=O)(=O)c1ccc(OC/C(=C/F)CN)cc1 [US11472769, Compound 28]	< 20 nM
CC1(CS(=O)(=O)c2ccc(OC/C(=C/F)CN)cc2F)CCOCC1 [US11472769, Compound 7]	< 20 nM
C[C@@H](CN1CCC2(CCCC2)C1=O)CS(=O)(=O)c1ccc(OC/C(=C/F)CN)cc1 [US11472769, Compound 110]	in the range around 60 nM
CC(C)C(=O)N(C)CC(C)(C)CS(=O)(=O)c1ccc(OC/C(=C/F)CN)cc1 [US11472769, Compound 96]	< 20 nM
NC/C(=C\F)COc1ccc(S(=O)(=O)CC23CCC(C(=O)O)(CC2)CC3)cc1 [US11472769, Compound 146]	in the range around 60 nM
CO[C@H]1CC[C@@H](CS(=O)(=O)c2ccc(OC/C(=C/F)CN)cc2)CC1 [US11472769, Compound 20]	< 20 nM
CC1(CS(=O)(=O)c2ccc(OC/C(=C/F)CN)cc2)CCOCC1 [US11472769, Compound 5]	< 20 nM
NC/C(=C\F)COc1ccc(S(=O)(=O)CC2CCOCC2)cc1F [US11472769, Compound 9]	< 20 nM
C[C@H](CN1CCCCC1=O)CS(=O)(=O)c1ccc(OC/C(=C/F)CN)cc1 [US11472769, Compound 104]	in the range around 60 nM
C[C@H](CN1CCC2(CCCC2)C1=O)CS(=O)(=O)c1ccc(OC/C(=C/F)CN)cc1 [US11472769, Compound 109]	in the range around 60 nM
NC/C(=C\F)COc1ccc(S(=O)(=O)CC2CCCN(C(=O)C3CCCC3)C2)cc1 (configuration not stated) [US11472769, Compound 100]	in the range around 60 nM
NC/C(=C\F)COc1ccc(S(=O)(=O)CC2CCN(C(=O)c3ccc(F)cc3)CC2)cc1 [US11472769, Compound 39]	< 20 nM
C[C@@H](CN1CCOCC1)CS(=O)(=O)c1ccc(OC/C(=C/F)CN)cc1 [US11472769, Compound 113]	< 20 nM
NC/C(=C\F)COc1ccc(S(=O)(=O)CC2CCOCC2)cc1 [US11472769, Compound 1]	< 20 nM
NC/C(=C\F)COc1ccc(S(=O)(=O)CC23CCC(N4CCCS4(=O)=O)(CC2)CC3)cc1 [US11472769, Compound 82]	< 20 nM
C[C@H](CN1CCOCC1)CS(=O)(=O)c1ccc(OC/C(=C/F)CN)cc1 [US11472769, Compound 112]	in the range around 60 nM
